Measurements taken from patent US9452225B2, “GLP-1 prodrugs” (Novo Nordisk A/S, priority 2012, dated 2016).

Legend:
[1] = Prodrug half-life in vitro, buffer method; format: physicochemical; conditions: 25 mM phosphate buffer pH 7.4, 37° C., 1.0 mg/mL; UPLC_A, or UPLC_B for compounds marked *; read-out: T½ in buffer (converted)
In short: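 Prodrug incubated at 1.0 mg/mL in 25 mM phosphate buffer (ionic strength 154 mM, pH 7.4) at 37° C, sampled over time. Prodrug and released parent quantified by UPLC peak areas; T½ derived as ln(2)/slope of linear fit of ln(% prodrug) versus time.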

[2] = Pharmacokinetic study in minipigs after i.v. administration; format: in vivo, Göttingen minipigs; conditions: in vivo, iv; minipig, prodrug given i.v. 8 nmol/kg; half-life of the released parent drug, estimated from the bell-shaped curve; read-out: apparent terminal half-life of corresponding drug (estimated) (converted)
Experimental: The purpose of this study is to determine the pharmacokinetic (PK) profile in vivo of a prodrug of the invention (Example 4) and the corresponding parent drug (Example B2.2) after i.v. administration to minipigs, e.g. the prolongation of their time in the body and thereby their time of action. This is done in a PK study, where the terminal half-life of the compound in question is determined. By terminal half-life is generally meant the period of time it takes to halve a certain plasma concentration, measured after the initial distribution phase.
Threefemale Göttingen minipigs, obtained from Ellegaard Göttingen Minipigs (Dalmose, Denmark) approximately 6-8 months of age and weighing approximately 16-21 kg (prodrug pig 16.8 kg, drug pigs 21.3 and 21.1 kg), were used in the studies. The minipigs were housed individually and fed restrictedly once daily with SDS minipig diet (Special Diets Services, Essex, UK). […]
The prodrug of Example 4 and the corresponding drug of Example B2.2 were dissolved in 50 mM sodium phosphate, 145 mM sodium chloride, 0.05% polysorbate 80, pH 7.4 to a suitable concentration (for example, 169.6 nmol/ml for the prodrug). […] Individual plasma concentration-time profiles were analyzed by a non-compartmental model in WinNonlin v. […] Also, the resulting terminal half-lives (harmonic mean/h) were determined, if possible. […]

[3] = Prodrug half-life in vitro, plasma method (minipig heparin plasma); format: in vitro ADME; conditions: minipig heparin plasma 800 μL + 200 μL 200 mM phosphate pH 7.4, 37° C.; UPLC_A, or UPLC_B for compounds marked *; read-out: T½ in plasma (converted)
Experimental: The purpose of this example is to test the in vitro half-lives (T½) of the GLP-1 prodrugs of the invention, in comparison to conceptually different prodrugs. In what follows two in vitro methods are described, viz. a method conducted in buffer, and a method conducted in plasma.
The half life of the prodrug (T½) was calculated from the slope of a linear fit to the curve of ln(% prodrug (Y)) as a function of time (t), as follows: Y=÷αt+k Math. 1 T½=ln(2)/α Math. 2 Plasma Method Buffer: 200 mM Phosphate, pH 7.4 at 37° C.
NaH2PO4.2H2O (15.61 g, 100 mmol) was dissolved in milliQ water (approximately 450 mL) and adjusted to pH=7.44 at approximately 20° C. with concentrated NaOH (aq) and 1 M NaOH (aq). Water was added to 500.00 mL.
Serum: Minipig Serum, Heparin-Plasma
Fresh blood was tapped from minipig into 9 mL LH lithium heparin Vacuette tubes from Greiner bio-one (catalogue number 455084). After cooling on ice it was centrifuged (10 min, 4° C., 3000 rpm/1942G) and the supernatant isolated and kept at −18° C. before use.
100 nmol of the compound to be tested was dissolved in 200 μL buffer, added to 800 μL plasma (centrifuged), and incubated at 37° C. Samples (50 μL) were drawn at appropriate intervals into 150 μL absolute EtOH. After a short stirring the sample was centrifuged and the supernatant transferred to the UPLC vial (10 μL injection).
The % parent drug compared to prodrug formed as a function of time was evaluated by UPLC, and the half-life calculated, both in the same way as described above under the Buffer method.

What does the source list for CC[C@H](C)[C@H](NC)C(=O)N[C@H](C(=O)O[C@@H](Cc1c[nH]cn1)C(=O)N[C@@H](C)C(=O)N[C@@H](CCC(=O)O)C(=O)NCC(=O)N[C@H](C(=O)N[C@@H](Cc1ccccc1)C(=O)N[C@H](C(=O)N[C@@H](CO)C(=O)N[C@@H](CC(=O)O)C(=O)N[C@H](C(=O)N[C@@H](CO)C(=O)N[C@@H](CO)C(=O)N[C@@H](Cc1ccc(O)cc1)C(=O)N[C@@H](CC(C)C)C(=O)N[C@@H](CCC(=O)O)C(=O)NCC(=O)N[C@@H](CCC(N)=O)C(=O)N[C@@H](C)C(=O)N[C@@H](C)C(=O)N[C@@H](CCCCNC(=O)COCCOCCNC(=O)COCCOCCNC(=O)CC[C@H](NC(=O)CCCCCCCCCOc1ccc(C(=O)O)cc1)C(=O)O)C(=O)N[C@@H](CCC(=O)O)C(=O)N[C@@H](Cc1ccccc1)C(=O)N[C@H](C(=O)N[C@@H](C)C(=O)N[C@@H](Cc1c[nH]c2ccccc12)C(=O)N[C@@H](CC(C)C)C(=O)N[C@H](C(=O)N[C@@H](CCCNC(=N)N)C(=O)NCC(=O)N[C@@H](CCCNC(=N)N)C(=O)N[C@@H](CCCCNC(=O)COCCOCCNC(=O)COCCOCCNC(=O)CC[C@H](NC(=O)CCCCCCCCCOc1ccc(C(=O)O)cc1)C(=O)O)C(=O)O)C(C)C)[C@@H](C)CC)C(C)C)[C@@H](C)O)[C@@H](C)O)C(C)C [Example 4]?
half-life [1]: 58.9 h; half-life [2]: 68 h; half-life [3]: 27.9 h
